Laboratory results: PMC12892976, “Alkylation-based optimization of antifungal FPPS inhibitors yields a potent, broad-spectrum lipophilic zoledronate derivative” (mBio, 2025)
≈ marks a conversion by molar mass, not a printed value. Read-outs that look alike come from different tables or passages of the source.

Columns and labels:
[1] = test system: Saccharomyces cerevisiae; assay: MIC/MFC broth microdilution (CLSI); type: cell-based; details: Saccharomyces cerevisiae S288c
Procedure: (§1) Antifungal susceptibility was determined by broth microdilution according to the CLSI guidelines described in M27-Ed4 ([16]). […] MFC was determined by back-plating drug-treated cultures from MIC broths onto SDA plates. The MFC was defined as the lowest concentration from which no colonies could be cultured.

[2] = test system: Candida albicans; assay: MIC/MFC broth microdilution (CLSI); type: cell-based; details: Candida albicans SC5314
Procedure: as §1

[3] = test system: Cryptococcus deuterogattii; assay: checkerboard drug interaction (FICI, MICc);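 on all read-outs here: simplified diagonal checkerboard screen pairing antifungal drugs with FPPS inhibitors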; type: cell-based; details: C. deuterogattii; for INH FD (MIC-MICc fold decrease): fold decrease of inhibitor MIC
Procedure: (§2) Drug interactions between antifungals and FPPS inhibitors were investigated using a simplified checkerboard diagonal screening method ([45]). […] FICIs were determined according to the Loewe additivity model ([17]).

[4] = test system: Cryptococcus neoformans; assay: checkerboard drug interaction (FICI, MICc);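 on all read-outs here: antifungal plus FPPS inhibitor pairs tested against Cryptococcus neoformans by simplified diagonal checkerboard screening, FICI computed under the Loewe additivity model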; type: cell-based; details: C. neoformans; for INH FD (MIC-MICc fold decrease): fold decrease of inhibitor MIC
Procedure: as §2

[5] = test system: Saccharomyces cerevisiae; assay: checkerboard drug interaction (FICI, MICc);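 on all read-outs here: simplified diagonal checkerboard screen pairing antifungals with FPPS inhibitors, FICI calculated under the Loewe additivity model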; type: cell-based; parameters: INH MICc / INH MICc (ITR:INH) / INH MICc (KET:INH) / INH MICc (FLC:INH): unit not given beside the values; details: S. cerevisiae; for INH FD (MIC-MICc fold decrease): fold decrease of inhibitor MIC
[6] = test system: Candida glabrata; assay: checkerboard drug interaction (FICI, MICc);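 on all read-outs here: simplified diagonal checkerboard screen pairing antifungals with FPPS inhibitors, FICI calculated under the Loewe additivity model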; type: cell-based; details: C. glabrata; for INH FD (MIC-MICc fold decrease): fold decrease of inhibitor MIC
Procedure: as §2

[7] = test system: Candida albicans; assay: checkerboard drug interaction (FICI, MICc);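 on all read-outs here: antifungal plus FPPS inhibitor combinations on Candida albicans tested by a simplified diagonal checkerboard screen, with FICI calculated under the Loewe additivity model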; type: cell-based; details: C. albicans; for INH FD (MIC-MICc fold decrease): fold decrease of inhibitor MIC
Procedure: as §2

[8] = test system: Aspergillus flavus; assay: checkerboard drug interaction (FICI, MICc);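 further: simplified diagonal checkerboard screen pairing azole antifungals with FPPS inhibitors, FICI calculated under the Loewe additivity model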; type: cell-based; parameters: INH MICc (KET:INH) / INH MICc (FLC:INH): unit not given beside the values; details: A. flavus
[9] = test system: Aspergillus fumigatus; assay: checkerboard drug interaction (FICI, MICc);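 on all read-outs here: simplified diagonal checkerboard screen pairing antifungals with FPPS inhibitors against Aspergillus fumigatus, with FICI calculated under the Loewe additivity model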; type: cell-based; details: A. fumigatus; for INH FD (MIC-MICc fold decrease): fold decrease of inhibitor MIC
Procedure: as §2

[10] = test system: Trichophyton rubrum; assay: checkerboard drug interaction (FICI, MICc);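 further: simplified diagonal checkerboard screen pairing azole antifungals with FPPS inhibitors, FICI calculated under the Loewe additivity model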; type: cell-based; details: T. rubrum
Procedure: as §2

[11] = test system: HEK-293T cells; assay: MTT reduction cytotoxicity assay; type: cell-based; details: Homo sapiens, HEK-293T, 72 h, MTT, 72 h
[12] = test system: eight fungal species; assay: MIC/MFC summary across the eight fungal species of Table 1; type: cell-based
Procedure: The antifungal activity of these compounds was evaluated according to CLSI guidelines ([16]).

[13] = test system: eight fungal species; assay: checkerboard interaction with azoles, summary across the eight species; type: cell-based; details: geometric mean MIC in combination with azoles
From the text: Synergy between lipophilic FPPS inhibitors and azole antifungals was investigated by determining the fractional inhibitory concentration index (FICI) (Fig. 2; Table S1 Fig. S1) ([17]). […]. Derivatives PLA9 and 11, and PDA9, 11, and 12 antagonized azoles in C. albicans, C. neoformans, and C. deuterogattii, yet were largely synergistic in C. glabrata and S. cerevisiae. […].

[14] = test system: Cryptococcus deuterogattii; assay: MIC/MFC broth microdilution (CLSI); details: Cryptococcus deuterogattii;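 further: broth microdilution per CLSI M27-Ed4. MFC is the lowest concentration yielding no colonies when MIC broths are subcultured onto SDA plates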
Procedure: as §1

[15] = test system: Cryptococcus neoformans; assay: MIC/MFC broth microdilution (CLSI); details: Cryptococcus neoformans;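 further: susceptibility testing followed the CLSI M27-Ed4 broth microdilution document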
Procedure: as §1

[16] = test system: Candida glabrata; assay: MIC/MFC broth microdilution (CLSI); details: Nakaseomyces glabratus, CBS138;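 further: broth microdilution following CLSI M27-Ed4, MFC taken as the lowest drug level yielding no growth once MIC wells were subcultured on SDA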
Procedure: as §1

[17] = test system: Aspergillus flavus; assay: MIC/MFC broth microdilution (CLSI); details: ATCC204304
Procedure: as §1

[18] = test system: Aspergillus fumigatus; assay: MIC/MFC broth microdilution (CLSI); details: ATCC204305
Procedure: as §1

[19] = test system: Trichophyton rubrum; assay: MIC/MFC broth microdilution (CLSI); details: Trichophyton rubrum
Procedure: as §1

[20] = FLC:INH combination, MIC of the inhibitor in combination with FLC
[21] = FLC:INH combination, fold decrease of FLC MIC
[22] = ITR:INH combination, MIC of the inhibitor in combination with ITR
[23] = ITR:INH combination, fold decrease of ITR MIC
[24] = KET:INH combination, MIC of the inhibitor in combination with KET
[25] = KET:INH combination, fold decrease of KET MIC
[26] = FLC:INH combination, MIC of FLC in combination with the inhibitor
[27] = ITR:INH combination, MIC of ITR in combination with the inhibitor
[28] = KET:INH combination, MIC of KET in combination with the inhibitor
[29] = Fractional Inhibitory Concentration Index, fluconazole + inhibitor
[30] = Fractional Inhibitory Concentration Index, itraconazole + inhibitor
[31] = Fractional Inhibitory Concentration Index, ketoconazole + inhibitor
[32] = MIC of the inhibitor in combination with fluconazole
[33] = MIC of the inhibitor in combination with itraconazole
[34] = MIC of the inhibitor in combination with ketoconazole
[35] = MIC-MICc fold decrease of fluconazole, negative = increase
[36] = MIC-MICc fold decrease of itraconazole, negative = increase
[37] = MIC-MICc fold decrease of ketoconazole, negative = increase
[38] = MIC-MICc fold decrease of the inhibitor, with fluconazole
[39] = MIC-MICc fold decrease of the inhibitor, with itraconazole
[40] = MIC-MICc fold decrease of the inhibitor, with ketoconazole

Compound: CCCCCCCCCN1CCC[C@H]1C(=O)N[C@@H](CC(=O)OC)C(=O)OC [dmPLA9]
- MFC [1]: 32 µg/mL (≈ 83.2 µM)
- MIC [1]: 32 µg/mL (≈ 83.2 µM)
- MFC [2]: > 128 µg/mL
- MIC [2]: > 128 µg/mL
- FICI ([3]; FLC:INH combination): 3
- INH MICc [3, 20]: 128
- FLC FD (MIC-MICc fold decrease) [3, 21]: -2
- INH FD (MIC-MICc fold decrease) ([3]; FLC:INH combination): 1
- FICI ([3]; ITR:INH combination): ≥4
- INH MICc [3, 22]: 256
- ITR FD (MIC-MICc fold decrease) [3, 23]: -4
- INH FD (MIC-MICc fold decrease) ([3]; ITR:INH combination): -2
- FICI ([3]; KET:INH combination): 1.5
- INH MICc [3, 24]: 128
- KET FD (MIC-MICc fold decrease) [3, 25]: 2
- INH FD (MIC-MICc fold decrease) ([3]; KET:INH combination): 1
- FICI ([4]; FLC:INH combination): ≥4
- INH MICc [4, 20]: 128
- FLC FD (MIC-MICc fold decrease) [4, 21]: -4
- INH FD (MIC-MICc fold decrease) ([4]; FLC:INH combination): -2
- FICI ([4]; ITR:INH combination): ≥4
- INH MICc [4, 22]: 128
- ITR FD (MIC-MICc fold decrease) [4, 23]: -4
- INH FD (MIC-MICc fold decrease) ([4]; ITR:INH combination): -2
- FICI ([4]; KET:INH combination): 3
- INH MICc [4, 24]: 64
- KET FD (MIC-MICc fold decrease) [4, 25]: -2
- INH FD (MIC-MICc fold decrease) ([4]; KET:INH combination): 1
- FICI ([5]; FLC:INH combination): 2.5
- FLC MICc [5, 26]: 8
- INH MICc [5, 20]: 16
- FLC FD (MIC-MICc fold decrease) [5, 21]: -2
- INH FD (MIC-MICc fold decrease) ([5]; FLC:INH combination): 2
- FICI ([5]; ITR:INH combination): 3
- ITR MICc [5, 27]: 0.5
- INH MICc [5, 22]: 32
- ITR FD (MIC-MICc fold decrease) [5, 23]: -2
- INH FD (MIC-MICc fold decrease) ([5]; ITR:INH combination): 1
- FICI ([5]; KET:INH combination): 1.06
- KET MICc [5, 28]: 2
- INH MICc [5, 24]: 2
- KET FD (MIC-MICc fold decrease) [5, 25]: 1
- INH FD (MIC-MICc fold decrease) ([5]; KET:INH combination): 16
- FICI ([6]; FLC:INH combination): ≥4
- INH MICc [6, 20]: 64
- FLC FD (MIC-MICc fold decrease) [6, 21]: -4
- INH FD (MIC-MICc fold decrease) ([6]; FLC:INH combination): 4
- FICI ([6]; ITR:INH combination): 1.5
- INH MICc [6, 22]: 8
- ITR FD (MIC-MICc fold decrease) [6, 23]: 1
- INH FD (MIC-MICc fold decrease) ([6]; ITR:INH combination): 32
- FICI ([6]; KET:INH combination): 1.5
- INH MICc [6, 24]: 8
- KET FD (MIC-MICc fold decrease) [6, 25]: 1
- INH FD (MIC-MICc fold decrease) ([6]; KET:INH combination): 32
- FICI ([7]; FLC:INH combination): 2.13
- INH MICc [7, 20]: 16
- FLC FD (MIC-MICc fold decrease) [7, 21]: -2
- INH FD (MIC-MICc fold decrease) ([7]; FLC:INH combination): 8
- FICI ([7]; ITR:INH combination): 2.13
- INH MICc [7, 22]: 16
- ITR FD (MIC-MICc fold decrease) [7, 23]: -2
- INH FD (MIC-MICc fold decrease) ([7]; ITR:INH combination): 8
- FICI ([7]; KET:INH combination): 2.13
- INH MICc [7, 24]: 16
- KET FD (MIC-MICc fold decrease) [7, 25]: -2
- INH FD (MIC-MICc fold decrease) ([7]; KET:INH combination): 8
- FICI (FLC:INH) [8, 29]: 1.5
- FICI (ITR:INH) [8, 30]: 2
- FICI (KET:INH) [8, 31]: 1
- INH MICc (FLC:INH) [8, 32]: 128
- INH MICc (ITR:INH) [8, 33]: 256
- INH MICc (KET:INH) [8, 34]: 128
- FLC FD (FLC:INH) [8, 35]: 1
- ITR FD (ITR:INH) [8, 36]: 1
- KET FD (KET:INH) [8, 37]: 2
- INH FD (FLC:INH) [8, 38]: 2
- INH FD (ITR:INH) [8, 39]: 1
- INH FD (KET:INH) [8, 40]: 2
- FICI ([9]; FLC:INH combination): 3
- FLC MICc [9, 26]: 128
- INH MICc [9, 20]: 256
- FLC FD (MIC-MICc fold decrease) [9, 21]: 1
- INH FD (MIC-MICc fold decrease) ([9]; FLC:INH combination): -2
- FICI ([9]; ITR:INH combination): 1.03
- ITR MICc [9, 27]: 0.125
- INH MICc [9, 22]: 4
- ITR FD (MIC-MICc fold decrease) [9, 23]: 1
- INH FD (MIC-MICc fold decrease) ([9]; ITR:INH combination): 32
- FICI ([9]; KET:INH combination): 2
- KET MICc [9, 28]: 4
- INH MICc [9, 24]: 128
- KET FD (MIC-MICc fold decrease) [9, 25]: 1
- INH FD (MIC-MICc fold decrease) ([9]; KET:INH combination): 1
- FICI (FLC:INH) [10, 29]: ≥4
- FICI (ITR:INH) [10, 30]: 1.5
- FICI (KET:INH) [10, 31]: 2
- INH MICc (FLC:INH) [10, 32]: 256
- INH MICc (ITR:INH) [10, 33]: 128
- INH MICc (KET:INH) [10, 34]: 128
- FLC FD (FLC:INH) [10, 35]: -2
- ITR FD (ITR:INH) [10, 36]: 2
- KET FD (KET:INH) [10, 37]: 1
- INH FD (FLC:INH) [10, 38]: -2
- INH FD (ITR:INH) [10, 39]: 1
- INH FD (KET:INH) [10, 40]: 1
- IC50 ([11]; HEK-293T cells, read-out: IC50): 41.4 µg/mL (≈ 108 µM)
- IC50 ([11]; read-out: HEK IC50): 41.4 µg/mL (≈ 108 µM)
- MFC ([12]; across eight species, read-out: Geometric mean MFC): 197 µg/mL (≈ 513 µM)
- MIC ([12]; geometric mean across eight species, read-out: GM fungal MIC): 128 µg/mL (≈ 333 µM)
- MIC ([12]; read-out: Geometric mean MIC): 128 µg/mL (≈ 333 µM)
- GM fungal MICc [13]: 52.3
- MFC [14]: > 128 µg/mL
- MIC [14]: 128 µg/mL (≈ 333 µM)
- MFC [15]: > 128 µg/mL
- MIC [15]: 128 µg/mL (≈ 333 µM)
- MFC [16]: > 128 µg/mL
- MIC [16]: 128 µg/mL (≈ 333 µM)
- MFC [17]: > 128 µg/mL
- MIC [17]: > 128 µg/mL
- MFC [18]: > 128 µg/mL
- MIC [18]: 128 µg/mL (≈ 333 µM)
- MFC [19]: > 128 µg/mL
- MIC [19]: 128 µg/mL (≈ 333 µM)
